Results published in ChEMBL document CHEMBL5226336, “Design, Synthesis, and Evaluation of [18F]T-914 as a Novel Positron-Emission Tomography Tracer for Lysine-Specific Demethylase 1” (J Med Chem, 2021).
Values belong to the compound of their own block, whether it stands above or below them. Active and inactive are the calls of the source. No cut-off for these calls is given here.

Legend:
[1] = target: LSD1/CoREST complex (Homo sapiens, UniProt O60341); assay: Inhibition of human recombinant LSD1/CoREST using ART(mK)QTARKSTGGKAPRKQLAGGK-biotin as substrate incubated for 15 mins; type: protein-complex assay
[2] = target: P-glycoprotein (ABCB1, MDR1) (Homo sapiens, UniProt P08183); assay: Substrate activity at p-glycoprotein (unknown origin) expressed in pig LLC-PK1 cells coexpressing MDR1 assessed as efflux ratio at apparent permeability across basolateral to apical side to apparent permeability across apical to basolateral side at 1 uM measured after 1 hr by LC-MS/MS analysis; type: ADME, cell-based
P-glycoprotein (ABCB1, MDR1), sequence (P08183 whole entry): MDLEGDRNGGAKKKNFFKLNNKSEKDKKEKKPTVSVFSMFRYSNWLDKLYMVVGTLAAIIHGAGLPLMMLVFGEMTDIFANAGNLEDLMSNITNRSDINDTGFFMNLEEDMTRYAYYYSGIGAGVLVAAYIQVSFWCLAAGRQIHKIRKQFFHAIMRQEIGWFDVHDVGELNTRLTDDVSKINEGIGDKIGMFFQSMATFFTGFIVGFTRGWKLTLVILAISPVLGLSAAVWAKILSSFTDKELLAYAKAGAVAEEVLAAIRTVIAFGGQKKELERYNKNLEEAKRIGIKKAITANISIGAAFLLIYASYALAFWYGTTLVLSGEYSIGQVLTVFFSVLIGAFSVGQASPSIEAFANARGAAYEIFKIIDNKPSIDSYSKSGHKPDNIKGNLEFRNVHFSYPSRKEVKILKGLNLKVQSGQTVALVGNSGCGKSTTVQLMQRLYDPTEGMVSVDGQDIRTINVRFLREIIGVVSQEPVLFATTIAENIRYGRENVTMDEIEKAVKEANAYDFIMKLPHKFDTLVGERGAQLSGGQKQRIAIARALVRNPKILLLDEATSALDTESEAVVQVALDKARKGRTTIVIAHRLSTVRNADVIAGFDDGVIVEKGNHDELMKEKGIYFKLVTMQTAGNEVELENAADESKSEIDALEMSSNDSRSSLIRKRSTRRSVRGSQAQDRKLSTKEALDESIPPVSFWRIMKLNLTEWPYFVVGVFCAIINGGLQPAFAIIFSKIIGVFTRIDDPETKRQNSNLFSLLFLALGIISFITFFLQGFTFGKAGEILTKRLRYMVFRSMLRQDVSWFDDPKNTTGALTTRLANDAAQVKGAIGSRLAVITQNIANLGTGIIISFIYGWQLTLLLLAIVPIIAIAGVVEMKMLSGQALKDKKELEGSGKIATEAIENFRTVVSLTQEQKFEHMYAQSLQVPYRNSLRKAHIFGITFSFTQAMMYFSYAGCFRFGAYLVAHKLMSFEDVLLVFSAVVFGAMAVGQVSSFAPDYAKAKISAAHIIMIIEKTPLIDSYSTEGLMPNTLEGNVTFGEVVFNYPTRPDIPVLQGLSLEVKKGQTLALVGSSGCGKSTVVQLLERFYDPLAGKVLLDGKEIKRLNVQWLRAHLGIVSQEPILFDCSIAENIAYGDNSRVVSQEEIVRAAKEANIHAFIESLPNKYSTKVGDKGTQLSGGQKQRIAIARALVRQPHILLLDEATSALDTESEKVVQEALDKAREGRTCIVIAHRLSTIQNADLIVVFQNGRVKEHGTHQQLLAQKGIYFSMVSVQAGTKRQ

[3] = Drug metabolism in Sprague-Dawley rat brain assessed as 6-fluoronicotinic acid level in cortex at 10 mg/kg, iv measured after 1 hr by HPLC-UV and LC/MS analysis; type: ADME, organism-based; conditions: in vivo
[4] = Drug metabolism in Sprague-Dawley rat brain assessed as 6-fluoronicotinic acid formation in cortex at 10 mg/kg, iv measured after 4 hrs by HPLC-UV and LC/MS analysis; type: ADME, organism-based; conditions: in vivo
[5] = Drug uptake in Sprague-Dawley rat brain at 1 mg/kg, iv measured after 1 to 24 hrs by LC-MS analysis; type: ADME, organism-based; conditions: in vivo, time 1-24 hrs
[6] = Drug uptake in Sprague-Dawley rat brain at 1 mg/kg, iv measured after 4 hrs by LC-MS analysis; type: ADME, organism-based; conditions: in vivo, BLD = below limit of detection
[7] = Drug metabolism in Sprague-Dawley rat brain assessed as N-(6-fluoropyridin-3-yl)-N-methylacetamide level in cortex at 1 mg/kg, iv measured after 1 hr by HPLC-UV and LC/MS analysis; type: ADME, organism-based; conditions: in vivo
[8] = Drug metabolism in Sprague-Dawley rat brain assessed as N-(6-fluoropyridin-3-yl)-N-methylacetamide level in cortex at 1 mg/kg, iv measured after 4 hrs by HPLC-UV and LC/MS analysis; type: ADME, organism-based; conditions: in vivo
[9] = Drug metabolism in Sprague-Dawley rat brain assessed as fluorine-containing metabolite level in cortex at 10 mg/kg, iv measured after 1 to 4 hrs by HPLC-UV and LC/MS analysis; type: ADME, organism-based; conditions: in vivo, time 1-4 hrs
[10] = Retention time of the compound by HPLC method; type: physicochemical
[11] = Drug metabolism in cryopreserved human hepatocytes assessed as hydrolysis-mediated 6-fluoro-4-methylnicotinic acid formation measured for 6 hrs by HPLC-UV and LC/MS analysis; type: ADME, cell-based, Hepatocyte
[12] = Drug metabolism in cryopreserved human hepatocytes assessed as N-acetylglucosamine conjugation-mediated metabolite formation measured for 6 hrs by HPLC-UV and LC/MS analysis; type: ADME, cell-based, Hepatocyte
[13] = Drug metabolism in cryopreserved rat hepatocytes assessed as hydrolysis-mediated 6-fluoro-4-methylnicotinic acid formation measured for 6 hrs by HPLC-UV and LC/MS analysis; type: ADME, cell-based, Hepatocyte
[14] = Drug metabolism in cryopreserved rat hepatocytes assessed as N-acetylglucosamine conjugation-mediated metabolite formation measured for 6 hrs by HPLC-UV and LC/MS analysis; type: ADME, cell-based, Hepatocyte
[15] = Drug metabolism in cryopreserved monkey hepatocytes assessed as N-acetylglucosamine conjugation-mediated metabolite formation measured for 6 hrs by HPLC-UV and LC/MS analysis; type: ADME, cell-based, Macaca mulatta, Hepatocyte; conditions: rhesus monkey
[16] = Drug metabolism in cryopreserved monkey hepatocytes assessed as hydrolysis-mediated 6-fluoro-4-methylnicotinic acid formation measured for 6 hrs by HPLC-UV and LC/MS analysis; type: ADME, cell-based, Macaca mulatta, Hepatocyte; conditions: rhesus monkey
[17] = target: Lysine-specific histone demethylase 1A (Homo sapiens) (UniProt O60341); assay: Binding affinity to human recombinant LSD1 assessed as compound-FAD adduct formation at 1 mM incubated for 1 hr by LC-MS analysis
[18] = target: T1, Amine oxidase [flavin-containing] A (Homo sapiens, UniProt P21397); assay: Inhibition of MAO-A (unknown origin) incubated for 10 mins followed by MAO substrate addition and measured after 60 mins by luciferin-based luminescence assay
T1 sequence (P21397 whole entry): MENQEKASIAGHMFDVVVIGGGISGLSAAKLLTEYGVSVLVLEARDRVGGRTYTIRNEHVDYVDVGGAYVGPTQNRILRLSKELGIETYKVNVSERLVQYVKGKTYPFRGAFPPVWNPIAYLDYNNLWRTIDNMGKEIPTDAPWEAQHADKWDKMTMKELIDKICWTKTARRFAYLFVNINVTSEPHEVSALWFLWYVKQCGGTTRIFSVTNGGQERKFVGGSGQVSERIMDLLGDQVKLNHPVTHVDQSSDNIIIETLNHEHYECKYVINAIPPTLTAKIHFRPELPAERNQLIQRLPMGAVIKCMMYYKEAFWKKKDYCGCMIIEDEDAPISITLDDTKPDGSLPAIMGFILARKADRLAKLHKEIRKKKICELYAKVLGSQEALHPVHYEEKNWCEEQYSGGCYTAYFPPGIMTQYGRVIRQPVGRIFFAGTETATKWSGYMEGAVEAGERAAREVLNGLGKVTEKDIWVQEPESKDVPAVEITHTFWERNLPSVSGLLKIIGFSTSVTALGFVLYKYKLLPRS

[19] = target: T2, Amine oxidase [flavin-containing] B (Homo sapiens, UniProt P27338); assay: Inhibition of MAO-B (unknown origin) incubated for 10 mins followed by MAO substrate addition and measured after 60 mins by luciferin-based luminescence assay
T2 sequence (P27338 whole entry): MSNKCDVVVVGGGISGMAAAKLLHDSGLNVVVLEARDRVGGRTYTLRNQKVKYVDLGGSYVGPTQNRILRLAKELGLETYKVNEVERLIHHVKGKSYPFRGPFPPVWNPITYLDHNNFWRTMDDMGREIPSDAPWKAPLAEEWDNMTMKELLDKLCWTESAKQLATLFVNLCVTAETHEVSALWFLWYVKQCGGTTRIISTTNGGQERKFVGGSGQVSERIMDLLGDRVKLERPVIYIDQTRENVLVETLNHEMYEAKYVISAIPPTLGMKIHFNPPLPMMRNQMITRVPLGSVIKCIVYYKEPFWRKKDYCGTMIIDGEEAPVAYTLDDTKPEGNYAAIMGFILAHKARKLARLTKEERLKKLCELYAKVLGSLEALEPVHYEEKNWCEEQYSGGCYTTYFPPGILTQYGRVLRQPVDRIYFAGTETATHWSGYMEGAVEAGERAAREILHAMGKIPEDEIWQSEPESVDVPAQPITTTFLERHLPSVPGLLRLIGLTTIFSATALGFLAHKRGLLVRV

[20] = Drug concentration in cynomolgus monkey plasma at 0.1 mg/kg, iv measured after 5 mins by LC-MS/MS analysis; type: ADME, organism-based, Macaca fascicularis
[21] = AUC(0 to 6 hrs) in cynomolgus monkey at 0.1 mg/kg, iv by LC-MS/MS analysis; type: ADME, organism-based, Macaca fascicularis; design: dose 0.1 mg/kg, route iv; conditions: in vivo
[22] = Half life in cynomolgus monkey at 0.1 mg/kg, iv by LC-MS/MS analysis; type: ADME, organism-based, Macaca fascicularis; conditions: in vivo
[23] = Total clearance in cynomolgus monkey at 0.1 mg/kg, iv by LC-MS/MS analysis; type: ADME, organism-based, Macaca fascicularis; conditions: in vivo
[24] = Volume of distribution at steady state in cynomolgus monkey at 0.1 mg/kg, iv by LC-MS/MS analysis; type: ADME, organism-based, Macaca fascicularis; conditions: in vivo, read-out: Vdss
[25] = Unbound drug concentration in Sprague-Dawley rat plasma assessed as free fraction ratio; type: ADME, cell-free
[26] = Unbound drug concentration in cynomolgus monkey plasma assessed as free fraction ratio; type: ADME, cell-free, Macaca fascicularis
[27] = Unbound drug concentration in Sprague-Dawley rat brain homogenate assessed as free fraction ratio; type: ADME, tissue-based
[28] = Lipophilicity, logD of the compound at pH 7.4; type: physicochemical; conditions: buffer
[29] = Drug uptake in rhesus monkey cerebellum administered intravenously and measured after 90 to 180 mins by PET/MRI imaging analysis; type: ADME, tissue-based, Macaca mulatta; conditions: in vivo, iv, time 90-180 min
[30] = Drug uptake in rhesus monkey anterior cingulate cortex administered intravenously and measured after 90 to 180 mins by PET/MRI imaging analysis; type: ADME, tissue-based, Macaca mulatta; conditions: in vivo, iv, time 90-180 min
[31] = Drug uptake in rhesus monkey frontal lobe administered intravenously and measured after 90 to 180 mins by PET/MRI imaging analysis; type: ADME, tissue-based, Macaca mulatta; conditions: in vivo, iv, time 90-180 min
[32] = Drug uptake in rhesus monkey caudate nucleus administered intravenously and measured after 90 to 180 mins by PET/MRI imaging analysis; type: ADME, tissue-based, Macaca mulatta; conditions: in vivo, iv, time 90-180 min
[33] = Drug uptake in rhesus monkey pons administered intravenously and measured after 90 to 180 mins by PET/MRI imaging analysis; type: ADME, tissue-based, Macaca mulatta; conditions: in vivo, iv, time 90-180 min
[34] = Drug uptake in rhesus monkey cerebellum administered intravenously pretreated with N-(4-[(1S,2R)/(1R,2S)-2-[(Cyclopropylmethyl)amino)cyclopropyl)phenyl)-6-fluoro-4-methylpyridine-3-carboxamide followed by compound addition and measured after 90 to 180 mins by PET/MRI imaging analysis; type: ADME, Macaca mulatta; conditions: in vivo, iv, time 90-180 min
[35] = Drug metabolism in Sprague-Dawley rat brain assessed as N-(6-fluoro-4-methylpyridin-3-yl)acetamide level in cortex at 10 mg/kg, iv measured after 1 hr by HPLC-UV and LC/MS analysis; type: ADME, organism-based; conditions: in vivo
[36] = Drug metabolism in Sprague-Dawley rat brain assessed as N-(6-fluoro-4-methylpyridin-3-yl)acetamide level in cortex at 10 mg/kg, iv measured after 4 hrs by HPLC-UV and LC/MS analysis; type: ADME, organism-based; conditions: in vivo

Compound: O=C(Nc1ccc([C@@H]2C[C@H]2NCC2CC2)cc1)c1ccc(F)nc1
IC50 [1]: 0.01 µM
efflux ratio at 1 h, 1 µM [2]: 0.8
Drug metabolism [3]: 0.28 nmol/g
Drug metabolism [4]: Metabolite_Notdetected

Compound: O=C(c1ccc([C@@H]2C[C@H]2NCC2CC2)cc1)N1CCC(F)CC1
IC50 [1]: 0.024 µM
efflux ratio at 1 h, 1 µM [2]: 0.66

Compound: Cc1cc(F)ncc1C(=O)Nc1ccc([C@@H]2C[C@H]2NCC2CC2)cc1
IC50 [1]: 0.0072 µM
efflux ratio at 1 h, 1 µM [2]: 0.91
Drug metabolism [9]: 0.21 nmol/g
Retention_time [10]: 11.85 min
Drug metabolism [11]: Metabolite_Notdetected
Drug metabolism [12]: Metabolite_Notdetected
Drug metabolism [13]: Metabolite_Notdetected
Drug metabolism [14]: Metabolite_Notdetected
Drug metabolism [15]: Metabolite_Detected
Drug metabolism [16]: Metabolite_Notdetected
Activity [17]: Active
IC50 [18]: > 100 µM
IC50 [19]: 33 µM
concentration at 5 min [20]: 31.2 ng/mL
AUC(0-t) [21]: 51.6 ng·h/mL
half-life [22]: 1.75 h
clearance [23]: 32.5 mL/min/kg
Vd [24]: 3.13 L/kg
Ratio [25]: 0.69
Ratio [26]: 0.67
Ratio [27]: 0.277
logD [28]: 1.62

Compound: Cc1nc(F)ccc1N(C)C(=O)c1ccc([C@@H]2C[C@H]2NCC2CC2)cc1
IC50 [1]: 0.0054 µM
efflux ratio at 1 h, 1 µM [2]: 1.3

Compound: Cc1cc([18F])ncc1C(=O)Nc1ccc([C@@H]2C[C@H]2NCC2CC2)cc1
Drug uptake [29]: Active
Drug uptake [30]: Active
Drug uptake [31]: Active
Drug uptake [32]: Active
Drug uptake [33]: Active
Drug uptake [34]: Not Active

Compound: Cc1cc(F)ncc1C(=O)O
Retention_time [10]: 2.19 min

Compound: O=C(c1ccc([C@@H]2C[C@H]2NCC2CC2)cc1)N1CC(F)C1
IC50 [1]: 0.064 µM
efflux ratio at 1 h, 1 µM [2]: 0.64

Further lines, with some results ahead:

Drug uptake [5]: Active
Compound: CC(=O)N(C)c1ccc(F)nc1

Drug uptake [6]: Bld
Drug metabolism [7]: 0.87 nmol/g
Drug metabolism [8]: 1.16 nmol/g
Compound: CN(C(=O)c1ccc([C@@H]2C[C@H]2NCC2CC2)cc1)c1ccc(F)nc1

Drug uptake [5]: Not Active
Compound: CN(C(=O)c1ccc(CCC(=O)O)cc1)c1ccc(F)nc1

efflux ratio at 1 h, 1 µM [2]: 1.4
Drug metabolism [35]: 0.1 nmol/g
Drug metabolism [36]: 0.24 nmol/g
Compound: Cc1cc(F)ncc1N(C)C(=O)c1ccc([C@@H]2C[C@H]2NCC2CC2)cc1
IC50 [1]: 0.0039 µM
